Seven molecules from DBAASP can be followed below.

Structures are written as SMILES. Converted amounts (≈) assume the structure as drawn.

Among the test systems are Proteus mirabilis; Streptococcus pyogenes; Staphylococcus aureus; Pseudomonas aeruginosa; Candida albicans; Escherichia coli UB1005.
What all share (test): ≥ marks a high value that may be exact or a test limit, other limits are often not marked, values filed in µg/mL are converted to µM
Assay [1] concerns Staphylococcus aureus KCTC 3881.
The test system of assay [2] is Escherichia coli KCTC 2571.
For assay [3], the system named is Salmonella typhimurium KCTC 1926.
Assay [4] deals with Pseudomonas aeruginosa KCTC 1637.
The subject of assay [5] is Escherichia coli KCTC 1682.
Assay [6] deals with Staphylococcus aureus KCTC 1621.
Assay [7] relates to Bacillus subtilis KCTC 3068.
Assay [8] deals with Pseudomonas aeruginosa KCTC 2004.
In assay [9] the test system is Pseudomonas aeruginosa KCTC 2513.
Assay [10] deals with Escherichia coli KCTC 2593.
In assay [11] the test system is Bacillus subtilis KCTC 1021.
The test system of assay [12] is Staphylococcus epidermidis KCTC 1917.
In assay [13] the test system is Staphylococcus aureus KCTC 1916.
Assay [14] concerns Bacillus subtilis KCTC 1022.
The test system of assay [15] is Bacillus subtilis DSM 347.
The subject of assay [16] is Escherichia coli DH5alpha.
The subject of assay [17] is Salmonella enterica serovar Typhimurium.
In assay [18] the test system is Staphylococcus epidermidis.
Assay [19] concerns Staphylococcus aureus ATCC 25923.
Assay [20] deals with Pseudomonas aeruginosa H103.
In assay [21] the test system is Klebsiella pneumoniae ATCC 700603.
Assay [22] has as its system Pseudomonas aeruginosa ATCC 27853.
Assay [23] has as its system Staphylococcus aureus ATCC 33591.
Assay [24] has as its system Escherichia coli ATCC 25922.
Assay [25] relates to Staphylococcus aureus ATCC 29213.
Assay [26] relates to Staphylococcus aureus ATCC 700699.

In general, MIC refers to the least concentration at which growth counts as inhibited. As for `CC[C@H](C)[C@H](NC(=O)CNC(=O)[C@H](CCCN=C(N)N)NC(=O)[C@H](Cc1ccccc1)NC(=O)[C@@H](NC(=O)[C@H](Cc1cnc[nH]1)NC(=O)[C@H](Cc1cnc[nH]1)NC(=O)[C@H](Cc1ccccc1)NC(=O)[C@@H](N)Cc1c[nH]c2ccccc12)[C@@H](C)CC)C(=O)N[C@H](C(=O)N[C@@H](Cc1cnc[nH]1)C(=O)N[C@H](C(=O)NCC(=O)N[C@@H](CCCCN)C(=O)N[C@H](C(=O)N[C@H](C(=O)N[C@@H](Cc1cnc[nH]1)C(=O)N[C@@H](CCCN=C(N)N)C(=O)N[C@@H](CC(C)C)C(=O)N[C@H](C(=O)N[C@H](C(=O)NCC(=O)O)[C@@H](C)O)C(C)C)[C@@H](C)CC)[C@@H](C)O)C(C)C)C(C)C` [WFHHIFRGIVHVGKTIHRLVTG], the MIC came to 2 µM (≈ 5.22 µg/mL) in [1]; 2 µM (≈ 5.22 µg/mL) in assay [2]; 2 µM (≈ 5.22 µg/mL) in assay [3]; 4 µM (≈ 10.4 µg/mL) in [4]; 2 µM (≈ 5.22 µg/mL) in [5]; 2 µM (≈ 5.22 µg/mL) in assay [6]. In addition, the MIC worked out at 2 µM (≈ 5.22 µg/mL) in assay [7]; 4 µM (≈ 10.4 µg/mL) in assay [8]; 4 µM (≈ 10.4 µg/mL) in assay [9]; 2 µM (≈ 5.22 µg/mL) in [10]; 2 µM (≈ 5.22 µg/mL) in assay [11]; 2 µM (≈ 5.22 µg/mL) in [12]. The minimum inhibitory concentration (MIC) in assay [13] and in [14] was 2 µM (≈ 5.22 µg/mL) in each case.
As for `CC[C@H](C)[C@H](NC(=O)CN)C(=O)NCC(=O)N[C@@H](CCCCN)C(=O)N[C@@H](Cc1ccccc1)C(=O)N[C@H](C(=O)N[C@@H](Cc1cnc[nH]1)C(=O)N[C@@H](C)C(=O)N[C@H](C(=O)N[C@@H](CCCCN)C(=O)N[C@@H](CCCCN)C(=O)N[C@@H](Cc1c[nH]c2ccccc12)C(=O)NCC(=O)N[C@@H](CCCCN)C(=O)N[C@H](C(=O)N[C@@H](Cc1ccccc1)C(=O)N[C@H](C(=O)NCC(=O)N[C@@H](CCC(=O)O)C(=O)N[C@H](C(=O)N[C@@H](C)C(=O)N[C@@H](CCCCN)C(=O)N[C@@H](CO)C(N)=O)[C@@H](C)CC)[C@@H](C)CC)[C@@H](C)O)C(C)C)[C@@H](C)CC` [GIGKFIHAVKKWGKTFIGEIAKS], the MIC in assay [15] stood at 1.6 µM (≈ 4.02 µg/mL); in assay [16], 0.8 µM (≈ 2.01 µg/mL).
As to `NC(N)=NCCC[C@H](NC(=O)[C@H](Cc1c[nH]c2ccccc12)NC(=O)[C@H](CCCN=C(N)N)NC(=O)[C@H](CCCN=C(N)N)NC(=O)[C@H](Cc1c[nH]c2ccccc12)NC(=O)[C@H](CCCN=C(N)N)NC(=O)[C@H](CCCN=C(N)N)NC(=O)[C@H](Cc1c[nH]c2ccccc12)NC(=O)[C@H](CCCN=C(N)N)NC(=O)[C@H](CCCN=C(N)N)NC(=O)[C@H](Cc1c[nH]c2ccccc12)NC(=O)[C@@H](N)CCCN=C(N)N)C(=O)O` [RWRRWRRWRRWR], the minimum inhibitory concentration (MIC) against Proteus mirabilis was 31.8 µM (≈ 64 µg/mL); in the assay with Streptococcus pyogenes, 0.497 µM (≈ 1 µg/mL); with Staphylococcus aureus, 5.96 µM (≈ 12 µg/mL); with Pseudomonas aeruginosa, above 31.8 µM.
Take `NC(N)=NCCC[C@H](NC(=O)[C@H](CCCN=C(N)N)NC(=O)[C@H](CCCN=C(N)N)NC(=O)[C@H](CCCN=C(N)N)NC(=O)[C@H](CCCN=C(N)N)NC(=O)[C@H](CCCN=C(N)N)NC(=O)[C@H](CCCN=C(N)N)NC(=O)[C@H](CCCN=C(N)N)NC(=O)[C@H](Cc1c[nH]c2ccccc12)NC(=O)[C@H](Cc1c[nH]c2ccccc12)NC(=O)[C@@H](N)Cc1c[nH]c2ccccc12)C(=O)O` [WWWRRRRRRRR]: the minimum inhibitory concentration (MIC) is at least 35 µM against Proteus mirabilis, 0.479 µM (≈ 0.875 µg/mL) with Streptococcus pyogenes, 5.48 µM (≈ 10 µg/mL) in the assay with Staphylococcus aureus and above 35 µM in the assay with Pseudomonas aeruginosa.
As for `CC[C@H](C)[C@H](NC(=O)[C@H](Cc1c[nH]c2ccccc12)NC(=O)[C@H](CC(C)C)NC(=O)[C@H](CCCN=C(N)N)NC(=O)[C@@H](N)C(C)C)C(=O)N[C@@H](CCCN=C(N)N)C(=O)N[C@H](C(=O)N[C@@H](C)C(=O)N[C@H](C(=O)N[C@H](C(=O)N[C@@H](CCCN=C(N)N)C(=O)N[C@@H](C)C(N)=O)[C@@H](C)CC)C(C)C)C(C)C` [VRLWIRVAVIRA], the MIC is at least 34.4 µM in [17]; 34.4 µM (≈ 50 µg/mL) in the assay with Candida albicans; 4.13 µM (≈ 6 µg/mL) with Escherichia coli UB1005; 2.07 µM (≈ 3 µg/mL) in [18]; 34.4 µM (≈ 50 µg/mL) in assay [19]; at least 34.4 µM in assay [20].
As to `CC[C@H](C)[C@H](NC(=O)[C@H](CC(=O)O)NC(=O)[C@H](CCCCN)NC(=O)[C@H](C)NC(=O)[C@H](C)NC(=O)CNC(=O)[C@H](CCCCN)NC(=O)[C@H](CC(C)C)NC(=O)[C@@H](NC(=O)[C@H](CC(=O)O)NC(=O)[C@@H](NC(=O)[C@@H](NC(=O)CN)C(C)C)C(C)C)[C@@H](C)CC)C(=O)N[C@@H](CC(C)C)C(=O)NCC(=O)N[C@@H](Cc1cnc[nH]1)C(=O)N[C@@H](CC(C)C)C(=O)N[C@@H](C)C(=O)N[C@@H](CO)C(=O)N[C@@H](CCCCN)C(=O)N[C@H](C(=O)N[C@@H](CCSC)C(=O)N[C@@H](CC(N)=O)C(=O)N[C@@H](CCCCN)C(=O)N[C@@H](CC(C)C)C(N)=O)C(C)C` [GVVDILKGAAKDILGHLASKVMNKL], the MIC is 25 µM (≈ 64.8 µg/mL) in assay [21]; 50 µM (≈ 130 µg/mL) in [22]; 25 µM (≈ 64.8 µg/mL) in assay [23]; 6.25 µM (≈ 16.2 µg/mL) in assay [24]; 100 µM (≈ 259 µg/mL) in assay [25]; at least 50 µM in assay [26].
Turning to `CC[C@H](C)[C@H](NC(=O)[C@H](CC(=O)O)NC(=O)[C@H](CCCCN)NC(=O)[C@H](C)NC(=O)[C@H](C)NC(=O)CNC(=O)[C@H](CCCCN)NC(=O)[C@H](CC(C)C)NC(=O)[C@H](C)NC(=O)[C@H](CC(=O)O)NC(=O)[C@@H](NC(=O)[C@@H](NC(=O)CN)C(C)C)C(C)C)C(=O)N[C@@H](C)C(=O)NCC(=O)N[C@@H](Cc1cnc[nH]1)C(=O)N[C@@H](CC(C)C)C(=O)N[C@@H](C)C(=O)N[C@@H](CO)C(=O)N[C@@H](CCCCN)C(=O)N[C@H](C(=O)N[C@@H](CCSC)C(=O)N[C@@H](CC(N)=O)C(=O)N[C@@H](CCCCN)C(=O)N[C@@H](CC(C)C)C(N)=O)C(C)C` [GVVDALKGAAKDIAGHLASKVMNKL], the MIC in [21] was above 100 µM; in assay [22] it was above 100 µM; in assay [23], at least 100 µM; in assay [24], above 100 µM; in assay [25] it was above 100 µM; in assay [26] it was at least 100 µM.
